According to patent publication US20220220128A1, “HETEROCYCLIC COMPOUNDS AS KINASE INHIBITORS, COMPOSITIONS COMPRISING THE HETEROCYCLIC COMPOUND, AND METHODS OF USE THEREOF” (JS Innopharm (Shanghai) Ltd, priority 2019, published 2022):
Read-outs that look alike come from different tables or passages of the source.

Columns and labels:
[1] = target: T1, human KDR kinase (Homo sapiens, UniProt P35968); experiment: KDR Kinase Assay (LanthaScreen TR-FRET enzymatic assay); format: biochemical; details: 1.2 nM KDR, 92 μM ATP
T1 construct: purchased Carna 08-191
In short: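 TR-FRET enzymatic format: after 15-min room-temperature compound pretreatment, 1.2 nM human KDR phosphorylated 3 μM FAM-P22 with 92 μM ATP (HEPES pH 7.5, 28° C., one hour). Reactions were quenched with EDTA buffer. IC50 came from nonlinear sigmoid fits of percent-of-vehicle signal ratios.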

[2] = system: TT cells; experiment: TT Cell Proliferation Assay (WST-8, 8 days); format: cell-based; details: Homo sapiens, 192 h, growth inhibition in TT cells, read-out: TT Cellular Activity
In short: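 IC50 was derived from absorbance at 450 nm after 5 h with WST-8, following 8 days' incubation at 37 °C. Final compound levels spanned 0.0005–5 μM in 0.5% DMSO. TT cells were seeded at 6,000 per well in 10% FBS RPMI-1640 and left to attach for 24 h beforehand.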

[3] = target: T2, human RET kinase (Homo sapiens, UniProt P07949); experiment: RET Kinase Assay (LanthaScreen TR-FRET enzymatic assay); format: biochemical; details: 7 nM RET, 23 μM ATP
T2 construct: purchased Carna 08-159
In short: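 TR-FRET enzymatic read-out using 23 μM ATP, 3 μM FAM-P2 substrate and 7 nM human RET, after 15-min compound pretreatment at room temperature and a 1 h reaction at 28° C in HEPES pH 7.5 buffer. Percent of DMSO control fitted to nonlinear sigmoid curves for IC50.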

T1 sequence (P35968 20-1356): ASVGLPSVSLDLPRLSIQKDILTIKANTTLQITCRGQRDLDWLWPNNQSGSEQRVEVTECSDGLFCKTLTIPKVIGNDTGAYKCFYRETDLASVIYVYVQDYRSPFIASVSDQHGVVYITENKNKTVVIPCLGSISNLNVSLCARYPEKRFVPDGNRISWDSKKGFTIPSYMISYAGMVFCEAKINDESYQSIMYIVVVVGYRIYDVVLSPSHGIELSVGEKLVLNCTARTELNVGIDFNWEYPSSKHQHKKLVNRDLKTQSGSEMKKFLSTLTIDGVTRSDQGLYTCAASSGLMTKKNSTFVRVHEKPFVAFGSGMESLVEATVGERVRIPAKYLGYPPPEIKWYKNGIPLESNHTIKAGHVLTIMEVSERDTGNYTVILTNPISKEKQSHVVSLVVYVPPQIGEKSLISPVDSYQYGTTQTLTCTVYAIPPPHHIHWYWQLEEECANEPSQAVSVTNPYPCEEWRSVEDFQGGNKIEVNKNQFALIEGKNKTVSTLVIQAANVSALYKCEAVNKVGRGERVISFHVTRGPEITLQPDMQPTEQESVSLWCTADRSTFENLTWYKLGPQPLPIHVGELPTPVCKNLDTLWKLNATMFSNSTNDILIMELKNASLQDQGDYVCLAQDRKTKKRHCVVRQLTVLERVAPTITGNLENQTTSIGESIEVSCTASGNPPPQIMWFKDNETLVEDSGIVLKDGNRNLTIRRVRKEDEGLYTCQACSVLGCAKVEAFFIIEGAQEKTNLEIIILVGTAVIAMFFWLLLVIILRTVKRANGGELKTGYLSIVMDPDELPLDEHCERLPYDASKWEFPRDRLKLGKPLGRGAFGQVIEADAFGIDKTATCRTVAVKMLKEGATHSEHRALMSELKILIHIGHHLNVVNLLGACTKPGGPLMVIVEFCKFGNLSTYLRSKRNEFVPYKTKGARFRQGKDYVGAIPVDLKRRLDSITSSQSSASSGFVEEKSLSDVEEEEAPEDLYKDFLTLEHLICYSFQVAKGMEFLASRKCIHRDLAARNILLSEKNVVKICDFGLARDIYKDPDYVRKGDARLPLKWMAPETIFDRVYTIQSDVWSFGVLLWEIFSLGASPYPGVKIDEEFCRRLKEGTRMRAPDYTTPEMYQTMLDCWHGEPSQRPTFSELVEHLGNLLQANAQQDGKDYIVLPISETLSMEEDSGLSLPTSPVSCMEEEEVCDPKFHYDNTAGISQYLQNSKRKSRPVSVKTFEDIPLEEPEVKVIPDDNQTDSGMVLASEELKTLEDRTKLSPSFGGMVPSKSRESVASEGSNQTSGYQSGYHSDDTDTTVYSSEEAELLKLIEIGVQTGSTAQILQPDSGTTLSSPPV
T2 sequence (P07949 29-1114): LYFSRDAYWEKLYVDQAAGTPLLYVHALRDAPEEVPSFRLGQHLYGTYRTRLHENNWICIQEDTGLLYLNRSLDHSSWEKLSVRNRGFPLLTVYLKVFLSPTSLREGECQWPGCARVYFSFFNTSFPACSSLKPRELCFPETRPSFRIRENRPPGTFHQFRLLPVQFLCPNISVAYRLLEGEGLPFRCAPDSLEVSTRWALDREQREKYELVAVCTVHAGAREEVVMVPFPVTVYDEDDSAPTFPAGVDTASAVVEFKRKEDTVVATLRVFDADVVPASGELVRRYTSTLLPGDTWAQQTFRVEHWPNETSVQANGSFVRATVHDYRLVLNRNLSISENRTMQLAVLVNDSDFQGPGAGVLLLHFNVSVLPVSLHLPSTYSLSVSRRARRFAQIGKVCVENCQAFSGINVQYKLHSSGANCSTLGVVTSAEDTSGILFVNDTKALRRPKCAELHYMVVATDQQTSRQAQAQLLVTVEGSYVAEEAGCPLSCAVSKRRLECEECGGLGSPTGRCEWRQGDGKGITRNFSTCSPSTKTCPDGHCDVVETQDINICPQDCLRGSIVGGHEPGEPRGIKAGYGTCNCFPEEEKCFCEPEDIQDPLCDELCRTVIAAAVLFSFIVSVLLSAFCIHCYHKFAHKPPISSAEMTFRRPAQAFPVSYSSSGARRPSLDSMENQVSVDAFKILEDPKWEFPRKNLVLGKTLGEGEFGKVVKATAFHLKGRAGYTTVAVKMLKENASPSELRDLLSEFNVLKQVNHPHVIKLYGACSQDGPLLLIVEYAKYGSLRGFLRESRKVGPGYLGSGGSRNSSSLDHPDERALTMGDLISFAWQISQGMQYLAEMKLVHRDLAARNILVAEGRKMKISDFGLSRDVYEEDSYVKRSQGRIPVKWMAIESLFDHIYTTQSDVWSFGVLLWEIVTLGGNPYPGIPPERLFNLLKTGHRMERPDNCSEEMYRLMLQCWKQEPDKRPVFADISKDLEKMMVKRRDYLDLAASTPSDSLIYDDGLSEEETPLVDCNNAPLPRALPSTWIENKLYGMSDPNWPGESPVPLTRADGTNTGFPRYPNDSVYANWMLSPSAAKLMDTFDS

| IC50 [1] | IC50 [3] | SMILES | IC50 ([2]; TT) | IC50 [2] |
| --- | --- | --- | --- | --- |
| > 0.1 µM | ≤ 0.01 µM | CCOc1cc(-c2ccc(N3C[C@@H]4C[C@@](C)(NC(=O)c5cc(F)ccc5C)C[C@@H]4C3)nc2)c2c(C#N)cnn2c1 [Example 69, N-((3aR,5s,6aS)-2-(5-(3-cyano-6-ethoxypyrazolo[1,5-a]pyridin-4-yl)pyridin-2-yl)-5-methyloctahydrocyclopenta[c]pyrrol-5-yl)-5-fluoro-2-methylbenzamide] | ≤ 0.01 µM |  |
| > 0.1 µM | ≤ 0.01 µM | CC(C)(O)COc1cc(-c2ccc(N3C[C@@H]4C[C@@](C)(NC(=O)c5ncccc5C#N)C[C@@H]4C3)nc2)c2c(C#N)cnn2c1 [Example 127, 3-cyano-N-((3aR,5s,6aS)-2-(5-(3-cyano-6-(2-hydroxy-2-methylpropoxy)pyrazolo[1,5-a]pyridin-4-yl)pyridin-2-yl)-5-methyloctahydrocyclopenta[c]pyrrol-5-yl)picolinamide] | 0.01 to 0.05 µM |  |
| 0.05 to 0.1 µM | ≤ 0.01 µM | COc1cc(-c2ccc(N3C[C@@H]4C[C@@](C)(NC(=O)c5ncccc5Cl)C[C@@H]4C3)nc2)c2c(C#N)cnn2c1 [Example 52, 3-chloro-N-((3aR,5s,6aS)-2-(5-(3-cyano-6-methoxypyrazolo[1,5-a]pyridin-4-yl)pyridin-2-yl)-5-methyloctahydro-cyclopenta[c]pyrrol-5-yl)picolinamide] | 0.01 to 0.05 µM |  |
| ≤ 0.01 µM | ≤ 0.01 µM | Cn1cc(-c2cc(-c3ccc(N4C[C@@H]5[C@H](CNC(=O)C(O)c6ccccc6)[C@@H]5C4)nc3)c3c(C#N)cnn3c2)cn1 (stereo partly drawn) [Example 79, N-(((1R,5S,6r)-3-(5-(3-cyano-6-(1-methyl-1H-pyrazol-4-yl)pyrazolo[1,5-a]pyridin-4-yl)pyridin-2-yl)-3-azabicyclo[3.1.0]hexan-6-yl)methyl)-2-hydroxy-2-phenylacetamide] | ≤ 0.01 µM |  |
| ≤ 0.01 µM | ≤ 0.01 µM | Cn1cc(-c2cc(-c3ccc(N4C[C@@H]5[C@H](CNC(=O)OC(C)(C)C)[C@@H]5C4)nc3)c3c(C#N)cnn3c2)cn1 [Example 72, tert-butyl (((1R,5S,6r)-3-(5-(3-cyano-6-(1-methyl-1H-pyrazol-4-yl)pyrazolo[1,5-a]pyridin-4-yl)pyridin-2-yl)-3-azabicyclo[3.1.0]hexan-6-yl)methyl)carbamate] | ≤ 0.01 µM |  |
| ≤ 0.01 µM | ≤ 0.01 µM | Cc1ccc(Cl)c(C(=O)NC[C@@H]2[C@H]3CN(c4ccc(-c5cc(-c6cnn(C)c6)cn6ncc(C#N)c56)cn4)C[C@@H]23)n1 [Example 82, 3-chloro-N-(((1R,5S,6s)-3-(5-(3-cyano-6-(1-methyl-1H-pyrazol-4-yl)pyrazolo[1.5-a]pyridin-4-yl)pyridin-2-yl)-3-azabicyclo[3.1.0]hexan-6-yl)methyl)-6-methylpicolinamide] | ≤ 0.01 µM |  |
| > 0.1 µM | ≤ 0.01 µM | Cn1cc(-c2cc(-c3ccc(N4C[C@@H]5[C@H](C4)[C@H]5NC(=O)C(N)c4ccccc4)nc3)c3c(C#N)cnn3c2)cn1 (stereo partly drawn) [Example 32, 2-amino-N-((1R,5S,6s)-3-(5-(3-cyano-6-(1-methyl-1H-pyrazol-4-yl)pyrazolo[1,5-a]pyridin-4-yl)pyridin-2-yl)-3-azabicyclo[3.1.0]hexan-6-yl)-2-phenylacetamide] | ≤ 0.01 µM |  |
| ≤ 0.01 µM | ≤ 0.01 µM | Cn1cc(-c2cc(-c3ccc(N4C[C@@H]5[C@H](CNC(=O)c6ncccc6Cl)[C@@H]5C4)nc3)c3c(C#N)cnn3c2)cn1 [Example 78, 3-chloro-N-(((1R,5S,6r)-3-(5-(3-cyano-6-(1-methyl-1H-pyrazol-4-yl)pyrazolo[1,5-a]pyridin-4-yl)pyridin-2-yl)-3-azabicyclo[3.1.0]hexan-6-yl)methyl)picolinamide] | ≤ 0.01 µM |  |
| 0.01 to 0.05 µM | ≤ 0.01 µM | CC(C)C(O)C(=O)NC12CC3CC(C1)N(c1ccc(-c4cc(OCC(C)(C)O)cn5ncc(C#N)c45)cn1)C(C3)C2 [Example 99, N-((1R,3 S,5s,7s)-2-(5-(3-cyano-6-(2-hydroxy-2-methylpropoxy)pyrazolo[1,5-a]pyridin-4-yl)pyridin-2-yl)-2-azaadamantan-5-yl)-2-hydroxy-3-methylbutanamide] | 0.01 to 0.05 µM |  |
| > 0.1 µM | ≤ 0.01 µM | CCOc1cc(-c2cnc(N3C[C@H]4C[C@H](NC(=O)c5ncccc5Cl)C[C@H]4C3)cn2)c2c(C#N)cnn2c1 [Example 50, 3-chloro-N-((3aR,5s,6aS)-2-(5-(3-cyano-6-ethoxypyrazolo[1,5-a]pyridin-4-yl)pyrazin-2-yl)octahydrocyclopenta[c]pyrrol-5-yl)picolinamide] | 0.01 to 0.05 µM |  |
| 0.01 to 0.05 µM | ≤ 0.01 µM | Cn1ccc(-c2cc(-c3ccc(N4C[C@@H]5[C@H](C4)[C@H]5NC(=O)c4ncccc4Cl)nc3)c3c(C#N)cnn3c2)n1 [Example 29, 3-chloro-N-((1R,5S,6s)-3-(5-(3-cyano-6-(1-methyl-1H-pyrazol-3-yl)pyrazolo[1,5-a]pyridin-4-yl)pyridin-2-yl)-3-azabicyclo[3.1.0]hexan-6-yl)picolinamide] | 0.05 to 0.1 µM |  |
| ≤ 0.01 µM | ≤ 0.01 µM | Cn1cc(-c2cc(-c3ccc(N4C[C@@H]5[C@H](C4)[C@H]5NC(=O)c4ncccc4C(F)(F)F)nc3)c3c(C#N)cnn3c2)cn1 [Example 21, N-((1R,5S,6s)-3-(5-(3-cyano-6-(1-methyl-1H-pyrazol-4-yl)pyrazolo[1,5-a]pyridin-4-yl)pyridin-2-yl)-3-azabicyclo[3.1.0]hexan-6-yl)-3-(trifluoromethyl)picolinamide] | 0.01 to 0.05 µM |  |
| ≤ 0.01 µM | ≤ 0.01 µM | COc1ccc(C(=O)N[C@]2(C)C[C@H]3CN(c4ccc(-c5cc(-c6cnn(C)c6)cn6ncc(C#N)c56)cn4)C[C@H]3C2)cn1 [Example 58, N-((3aR,5s,6aS)-2-(5-(3-cyano-6-(1-methyl-1H-pyrazol-4-yl)pyrazolo[1,5-a]pyridin-4-yl)pyridin-2-yl)-5-methyloctahydro-cyclopenta[c]pyrrol-5-yl)-6-methoxy-nicotinamide] | 0.01 to 0.05 µM |  |
| 0.01 to 0.05 µM | ≤ 0.01 µM | CC(C)(O)COc1cc(-c2ccc(N3C[C@@H]4C[C@@](C)(NS(=O)(=O)c5c(F)cccc5Cl)C[C@@H]4C3)nc2)c2c(C#N)cnn2c1 [Example 197, 2-chloro-N-((3aR,5s,6aS)-2-(5-(3-cyano-6-(2-hydroxy-2-methylpropoxy)pyrazolo[1,5-a]pyridin-4-yl)pyridin-2-yl)-5-methyloctahydrocyclopenta[c]pyrrol-5-yl)-6-fluorobenzenesulfonamide] | 0.01 to 0.05 µM |  |
| > 0.1 µM | ≤ 0.01 µM | CC(O)COc1cc(-c2ccc(N3C[C@H]4CN(C(=O)c5ncccc5Cl)C[C@H]4C3)nc2)c2c(C#N)cnn2c1 (stereo partly drawn) [Example 8, 4-(6-((3aR,6aS)-5-(3-chloropicolinoyl)hexahydropyrrolo[3,4-c]pyrrol-2(1H)-yl)pyridin-3-yl)-6-(2-hydroxypropoxy)pyrazolo[1,5-a]pyridine-3-carbonitrile] | 0.01 to 0.05 µM |  |
| > 0.1 µM | ≤ 0.01 µM | CCOc1cc(-c2cnc(N3C[C@@H]4C[C@@](C)(NC(=O)c5ncccc5Cl)C[C@@H]4C3)cn2)c2c(C#N)cnn2c1 [Example 60, 3-chloro-N-((3aR,5s,6aS)-2-(5-(3-cyano-6-ethoxypyrazolo[1,5-a]pyridin-4-yl)pyrazin-2-yl)-5-methyloctahydrocyclopenta[c]pyrrol-5-yl)picolinamide] | 0.01 to 0.05 µM |  |
| ≤ 0.01 µM | ≤ 0.01 µM | Cn1cc(-c2cc(-c3cnc(N4C[C@@H]5C[C@@](C)(NC(=O)c6c(F)cccc6Cl)C[C@@H]5C4)cn3)c3c(C#N)cnn3c2)cn1 [Example 141, 2-chloro-N-((3aR,5s,6aS)-2-(5-(3-cyano-6-(1-methyl-1H-pyrazol-4-yl)pyrazolo[1,5-a]pyridin-4-yl)pyrazin-2-yl)-5-methyloctahydrocyclopenta[c]pyrrol-5-yl)-6-fluorobenzamide] | ≤ 0.01 µM |  |
| ≤ 0.01 µM | ≤ 0.01 µM | COc1ccc(NC(=O)N[C@H]2[C@@H]3CN(c4ccc(-c5cc(-c6cnn(C)c6)cn6ncc(C#N)c56)cn4)C[C@@H]32)cn1 [Example 45, 1-((1R,5S,6s)-3-(5-(3-cyano-6-(1-methyl-1H-pyrazol-4-yl)pyrazolo[1,5-a]pyridin-4-yl)pyridin-2-yl)-3-azabicyclo[3.1.0]hexan-6-yl)-3-(6-methoxypyridin-3-yl)urea] | 0.05 to 0.1 µM |  |

| SMILES | IC50 [1] | IC50 [3] | IC50 ([2]; TT) | IC50 [2] |
| --- | --- | --- | --- | --- |
| Cn1cc(-c2cc(-c3ccc(N4C[C@@H]5[C@H](C4)[C@H]5NC(=O)[C@H](O)c4ccccc4)nc3)c3c(C#N)cnn3c2)cn1 [Example 18, (R)-N-((1R,5S,6s)-3-(5-(3-cyano-6-(1-methyl-1H-pyrazol-4-yl)pyrazolo[1,5-a]pyridin-4-yl)pyridin-2-yl)-3-azabicyclo[3.1.0]hexan-6-yl)-2-hydroxy-2-phenylacetamide] | 0.01 to 0.05 µM | ≤ 0.01 µM |  | 0.01 to 0.05 µM |
